Measurements: ChEMBL document CHEMBL1914363, “Identification of a naturally occurring quinazolin-4(3H)-one firefly luciferase inhibitor” (J Nat Prod, 2011)
Calls of active or inactive are those of the source. The rule behind the calls is not given here.

Assays:
[1] = molecular target: T1, Luciferin 4-monooxygenase (Luciola lateralis, UniProt Q01158); experiment: Inhibition of firefly luciferase by ATPlite assay in absence of AMPK; set-up: species or system Aquatica lateralis
T1 sequence (Q01158 whole entry): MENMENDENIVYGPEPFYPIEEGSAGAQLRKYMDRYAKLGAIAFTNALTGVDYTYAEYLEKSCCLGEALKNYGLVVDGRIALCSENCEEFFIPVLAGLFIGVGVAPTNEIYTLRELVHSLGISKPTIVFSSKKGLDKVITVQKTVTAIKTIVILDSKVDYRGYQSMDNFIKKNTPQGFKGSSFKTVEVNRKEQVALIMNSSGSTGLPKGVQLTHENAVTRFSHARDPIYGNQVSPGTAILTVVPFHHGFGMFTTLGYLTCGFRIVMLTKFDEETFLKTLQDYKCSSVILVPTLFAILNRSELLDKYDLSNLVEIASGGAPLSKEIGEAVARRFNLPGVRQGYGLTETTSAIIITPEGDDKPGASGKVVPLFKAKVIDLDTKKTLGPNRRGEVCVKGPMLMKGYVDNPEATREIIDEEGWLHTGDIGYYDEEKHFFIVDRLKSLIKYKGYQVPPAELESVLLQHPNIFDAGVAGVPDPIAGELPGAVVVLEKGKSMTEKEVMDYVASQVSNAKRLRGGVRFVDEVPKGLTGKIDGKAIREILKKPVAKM

[2] = molecular target: T2, Luciferin 4-monooxygenase (Luciola lateralis) (UniProt Q01158); experiment: Inhibition of firefly luciferase by ATPlite assay in presence of AMPK; details: Aquatica lateralis
T2 sequence (whole entry): T1 sequence (Q01158 whole entry)

For `CNc1ccc(-c2nc3ccccc3c(=O)[nH]2)cc1`, which EC50 [1] is on record?
Its EC50 is 0.73 µM.

What about the inhibition [2] of the same molecule?
The inhibition was “Active”.
